Results taken from publication PMC8348310, “Antioxidants Isolated from Elaeagnus umbellata (Thunb.) Protect against Bacterial Infections and Diabetes in Streptozotocin-Induced Diabetic Rat Model” (Molecules, 2021).
Values after ≈ are worked out from the molar mass of the structure shown.

Legend:
[1] = test system: Bacillus cereus; assay: Broth dilution MIC determination; format: cell-based; details: 37 °C, 24 h, read-out: Minimum Inhibitory Concentrations
Protocol: (§1) Antibacterial potential of isolated compound was investigated against both Gram-positive and Gram-negative bacterial strains; Escherichia coli, Bacillus cereus, Salmonella typhi, Klebsiella pneumonia, Pseudomonas aeruginosa and Proteus mirabilis. Bacterial strains were provided by the Department of Pharmacy, University of Malakand, Khyber Pakhtunkhwa, Pakistan, and were kept at 4 °C in agar slants in freeze-dried condition until further use.
(§2) Both Gram-positive and Gram-negative bacterial strains Escherichia coli, Bacillus cereus, Salmonella typhi, Klebsiella pneumonia, Pseudomonas aeruginosa and Proteus mirabilis organism viable count per mL in the stock suspension was determined using surface viable counting technique. About 10^8–10^9 colony-forming units (CFU) per mL were used as inoculum in subsequent experiments. A fresh stock suspension was used each time.
(§3) Minimum inhibitory concentrations (MICs) of morin, phloroglucinol, and 1-hexyl benzene were determined using broth dilution method, following the Clinical and Laboratory Standards Institute (CLSI) guidelines. Stock solutions of morin, phloroglucinol, and 1-hexyl benzene were prepared in dimethylsulphoxide (DMSO). The serial dilutions from the stock solution were made ranging from 500 to 3.90 μg/mL using Mueller–Hinton broth. Sterile centrifuge tubes were arranged in sets of rows for each bacterial inoculum to cover the different concentration of isolated compounds in triplicate. The standard bacterial stock suspension 10^8–10^9 CFU/mL, in 100 μL were inoculated into each tube. A sterility control tube and a growth control tube were also incubated (for each strain). The tubes were incubated at 37 °C for 24 h. After incubation, 40 μL of a 0.4 mg/mL solution of para iodonitrotetrazolium (INT) chloride was added to each tube as an indicator of microbial growth. […] The evaluation for the inhibition of microbial growth was based on the color change of INT to pink, while no color change indicates the absence of growth. The MIC is the lowest concentration of the compounds at which there is no visible growth in the tubes. The concentration that inhibited bacterial growth completely (the first clear tube) was taken as the MIC value. Experiments were performed in triplicate and mean values are presented.
(§4) In order to, determine the sensitivity of the bacterial strains, positive control experiments were conducted, taking ampicillin at a starting concentration of 0.10 mg/mL in sterile water while the final concentrations for these experiments ranged from 25.00 to 0.19 μg/mL. A negative control experiment was conducted using only DMSO.

[2] = test system: Escherichia coli; assay: Broth dilution MIC determination; format: cell-based; details: 37 °C, 24 h, read-out: Minimum Inhibitory Concentrations
Protocol: as §1, §2, §3, §4

[3] = test system: Klebsiella pneumonia; assay: Broth dilution MIC determination; format: cell-based; details: Klebsiella pneumoniae, 37 °C, 24 h, read-out: Minimum Inhibitory Concentrations
Protocol: as §1, §2, §3, §4

[4] = test system: Proteus mirabilis; assay: Broth dilution MIC determination; format: cell-based; details: 37 °C, 24 h, read-out: Minimum Inhibitory Concentrations
Protocol: as §1, §2, §3, §4

[5] = test system: Pseudomonas aeruginosa; assay: Broth dilution MIC determination; format: cell-based; details: 37 °C, 24 h, read-out: Minimum Inhibitory Concentrations
Protocol: as §1, §2, §3, §4

[6] = test system: Salmonella typhi; assay: Broth dilution MIC determination; format: cell-based; details: Salmonella enterica, 24 h, read-out: Minimum Inhibitory Concentrations
[7] = test system: Staphylococcus aureus; assay: Broth dilution MIC determination; format: cell-based; details: 37 °C, 24 h, read-out: Minimum Inhibitory Concentrations
Protocol: as §3, with “Stock” for “Minimum inhibitory concentrations (MICs) of morin, phloroglucinol, and 1-hexyl benzene were determined using broth dilution method, following the Clinical and Laboratory Standards Institute (CLSI) guidelines. Stock”, “The serial dilutions from the stock solution were made ranging from 500 to 3.90 μg/mL using Mueller–Hinton broth.” left out, “The standard bacterial stock suspension 10^8–10^9 CFU/mL, in 100 μL were inoculated into each tube.” left out, “presented. […] A negative control experiment was conducted using only DMSO.” for “presented.”

[8] = DPPH free radical scavenging assay; format: biochemical
Protocol: According to the Brand-Williams assay DPPH (2, 2-diphenyl-1-picrylhydrazyl) free radical scavenging activity of morin was determined. DPPH and compounds stock solutions (1 mg/mL) were prepared in 100 mL methanol with serial dilutions of […], 62.5, 250, 500, and 1000 µg/mL. After that, 0.1 mL morin was mixed with 3.0 mL DPPH solution and incubated at 23 °C for 30 min. Standard ascorbic acid solution was also prepared in the same way using as a positive control. Finally, absorbance was measured at 517 nm via UV spectrophotometer. Results were taken in a set of three experiments and represented as mean ± SEM. Percent free radicals scavenging potential was calculated according to the following Equation (1): (1) % Free radicals Scavenging potential = Blank sample absorbance−sample absorbance/Blank sample absorbance×100
(§5) All the in vitro and in vivo experiments were analyzed in three replicates and determined as mean ± SEM. Student’s t-test and one way ANOVA followed by Dunnett’s post hoc multiple comparison test was used. p ≤ 0.05 were considered as significant. Linear regression analysis was used to calculate the IC50 value for % DPPH, ABTS, α-amylase, and α-glucosidase inhibition against the different concentrations of the test samples by means of Excel program 2007.

[9] = ABTS free radical scavenging assay; format: biochemical
Protocol: ABTS (2,2′-azinobis-3-ethylbenzothiazoline-6-sulfonic acid) free radicals inhibition potential were determined according to the reported assay. ABTS solution was prepared in methanol (100 mL). In total, 300 µL of compound (morin, phloroglucinol, and 1-hexyl benzene) was mixed thoroughly with 3.0 mL ABTS solution and incubated for six minutes. Finally, the absorbance was measured through UV spectrophotometer using ascorbic acid as positive control. Percent ABTS free radicals scavenging potential was calculated using the equation No. 1.
as §5

[10] = DPPH free radical scavenging assay; format: biochemical; details: 125 µg/mL
[11] = 1000 µg/mL, listed as ascorbic acid
[12] = linear regression of % scavenging vs concentration

In the case of `CC1(C)S[C@@H]2[C@H](NC(=O)[C@H](N)c3ccccc3)C(=O)N2[C@H]1C(=O)O` [Ampicillin, ampicillin, reference compound], the MIC [1] is reported as 1.6 µg/mL (≈ 4.58 µM), the MIC [2] is reported as 1 ± 0.1 µg/mL (≈ 2.86 µM) and the MIC [3] is reported as 1.9 ± 1.2 µg/mL (≈ 5.44 µM). For the same compound, the MIC [4] was 1.9 ± 1.1 µg/mL (≈ 5.44 µM), the MIC [5] was 1.2 ± 0.5 µg/mL (≈ 3.43 µM) and the MIC [6] was 1.8 ± 0.1 µg/mL (≈ 5.15 µM). It also gave an MIC [7] of 1.4 ± 0.5 µg/mL (≈ 4.01 µM).
With `O=C1O[C@H]([C@@H](O)CO)C(O)=C1O` [Ascorbic acid, ascorbic acid, reference compound] the “% DPPH Scavenging Mean ± SEM” value ([8]; 31.05 µg/mL) was 69 ± 0.4%, the “% DPPH Scavenging Mean ± SEM” value ([8]; 62.5 µg/mL) was 73 ± 0.5% and the “% DPPH Scavenging Mean ± SEM” value ([8]; 250 µg/mL) was 80 ± 0.4%. The “% DPPH Scavenging Mean ± SEM” value ([8]; 500 µg/mL) was 86 ± 1.0%, the “% DPPH Scavenging Mean ± SEM” value ([8]; 1000 µg/mL) was 91 ± 0.5% and the “% DPPH Scavenging Mean ± SEM” value [8, 11] was 86 ± 0.5%. The “DPPH IC50” value [8, 12] was 29 µg/mL, the “% ABTS Scavenging Mean ± SEM” value ([9]; 31.05 µg/mL) was 56 ± 1.1% and the “% ABTS Scavenging Mean ± SEM” value ([9]; 62.5 µg/mL) was 64 ± 1.0%. The “% ABTS Scavenging Mean ± SEM” value ([9]; 125 µg/mL) was 70 ± 0.5%, the “% ABTS Scavenging Mean ± SEM” value ([9]; 250 µg/mL) was 78 ± 0.5% and the “% ABTS Scavenging Mean ± SEM” value ([9]; 500 µg/mL) was 84 ± 1.1%. For the same compound, the “% ABTS Scavenging Mean ± SEM” value ([9]; 1000 µg/mL) was 90 ± 0.5%, the “% ABTS Scavenging Mean ± SEM” value [9, 11] was 85 ± 0.5% and the “ABTS IC50” value [9, 12] was 32 µg/mL. The “% DPPH Scavenging Mean ± SEM” value [10] was 77 ± 0.4%.
